Measurements published in patent US20100016307A1, “NOVEL COMPOUNDS” (priority 2006, published 2010).

Experiments:
[1] = target: T1, human Met Kinase (His6-GST fusion, aa 956-1390) (Homo sapiens, UniProt P08581); assay: In vitro screen: kinase assay of purified Met kinase; type: biochemical; details: purified Met 1 nM, 10 μM ATP, 1 μM peptide substrate, 1 hour at room temperature; read-out: pIC50 values at the c-Met receptor (in vitro screen results) (converted)
T1 construct: His6 (N); GST (Glutathione-S-Transferase) (N); made in house; host or cells: baculovirus expression system in Sf9 cells
Method: The peptide substrate, Biotin-aminohexyl-EEEEYFELVAKKKK-amide was purchased from SynPep Solid sample is dissolved at approximately 2.5 mM in water (concentration determined by amino acid analysis) and aliquots stored at −20° C.
Met Kinase: A fusion protein consisting of His6-tagged Glutathione-S-Transferase (GST) and amino acid residues 956-1390 of human Met Kinase (aa 956-1390 of Entrez Protein Accession # EAL24359.1 (met proto-oncogene (hepatocyte growth factor receptor) [Homo sapiens])) from “www.ncbi.nlm.nih.gov/entrez/”) is purified from baculovirus expression system in Sf9 cells using Ni chelate column, GSH column, followed by size exclusion chromatography. Purity greater than 90%, estimated by SDS-PAGE, is achieved. Samples in 25 mM HEPES pH 7.5, 100 mM NaCl, 0.1 mM EDTA are stored at −80° C. until use.
Assays are performed in 96 well (Costar, Catalog No. 3789) or 384 well plates (Costar, Catalog No. 3705). Assay conditions for the peptide phosphorylation reaction (in 10, 20, 25, or 40 μl volume) mix are 100 mM Hepes buffer, pH 7.4; 0.1 mgml^−1 BSA; 5 mM MgCl2; 1 mM DTT; 10 μM ATP; purified Met (1 nM final); and 1 μM peptide substrate. Compounds, titrated in DMSO, are evaluated at concentrations ranging from 50 μM to 0.2 nM. […] Reactions are incubated for 1 hour at room temperature and are stopped by addition of detection reagents containing, at final detection volume, 12.5 mM EDTA; 100 mM Hepes; 0.1 mg/ml BSA; 8 nM Streptavidin APC (Perkin Elmer catalog #CR130-150); 1 nM Europium-labelled anti-phosphotyrosine antibody (Perkin Elmer catalog #AD0067). Under the assay conditions defined above, the Km (apparent) for ATP is determined to be 40 μM.
The data for compound dose responses were plotted as % Inhibition, calculated with the data reduction formula 100*(1−[(U1−C2)/(C1−C2)]), versus concentration of compound, where U is the unknown value, C1 is the average control value obtained for DMSO, and C2 is the average control value obtained for 0.05M EDTA. Data were fitted to the curve described by: y=((Vmax*x)/(K+x)) where Vmax is the upper asymptote and K is the IC50. The results for each compound were recorded as pIC50 calculated as follows: pIC50=−Log 10(K).

[2] = target: T2, c-Met/cFms chimeric receptor in c-Met/cFms/NIH3T3 cells (Homo sapiens, UniProt P08581); assay: Cell-based assay for c-Met autophosphorylation (ELISA); details: compounds 1 h at 37° C., M-CSF (600 ng/ml) stimulation 10 min
T2 construct: The transmembrane/cytoplasmic domain fragment of c-Met (nucleotides 933 to 1390); expressed in transfected cells; the other entry of the earlier key: CSF1R (P07333, Macrophage colony-stimulating factor 1 receptor)
From the text: To generate a chimeric cDNA clone of c-Met with cFms, the extracellular domain of colony stimulating factor 1 receptor (CSF1R encoded by cFms gene) was fused with the transmembrane and cytoplasmic domain of c-Met. Reverse-transcribed RNA from human placenta was used as template to clone c-Met. The transmembrane/cytoplasmic domain fragment of c-Met (nucleotides 933 to 1390) containing a NotI site at both 5′- and 3′-end was generated by polymerase chain reaction (PCR) using following two oligonucleotides;
The resulting c-Met cDNA was cloned into pCR2.1-TOPO vector (c-Met/pCR2.1-TOPO). The extracellular domain fragment of cFms (nucleotides 1 to 512) containing BamHI site at 5′-end and NotI site at 3′-end was generated from human placenta cDNA by PCR using two oligonucleotides;
The resulting cFms cDNA was cloned into pcDNA3.1 vector (Invitrogen) using the BamHI and NotI sites (cFms/pcDNA3.1). To generate complete chimeric construct, the c-Met fragment (transmembrane and cytoplasmic domain) was digested with NotI sites (in c-Met/pCR2.1-TOPO vector) and then subcloned into cFms/pcDNA3.1 vector by NotI site (c-Met/cFms/pcDNA3.1).
NIH3T3 cells were grown in DMEM supplemented with 10% fetal bovine serum. NIH3T3 cells were transfected with c-Met/cFms/pcDNA3.1 vector alone using the calcium phosphate method according to the manufacturer's instructions. Three days after transfection, cells were selected with G418 (0.4 mgml^−1) for 14 days and the expression of c-Met chimeric receptor in the G418-resistant colonies of NIH3T3 (c-Met/cFms/NIH3T3) cells was analyzed by immunoblot. Autophosphorylation of c-Met induced by the stimulation with M-SCF, the ligand for CSF1R, was analyzed by immunoprecipitation and immunoblot, and prominent stable transfectant was selected for c-Met autophosphorylation assay. […]
c-Met/cFms/NIH3T3 cells were plated at 1×10^5 cells/well in collagen-coated 96-well microtitre plates and grown 24 h under standard culture conditions, followed by serum starvation for 1 h. The cells were incubated with compounds for 1 h at 37° C. and followed by M-CSF (600 ngml^−1) stimulation for 10 min at 37° C. The media was removed and the cells were lysed with 120 ul/well of lysis buffer (20 mM Tris-HCl pH8.0, 137 mM NaCl, 2 mM EDTA, 10% glycerol, 1% Triton X-100, 1 mM Na3VO4 and Protease Inhibitor Cocktail (Complete mini EDTA-free, Roche)). Then 100 ul/well of lysate was transferred to the antibody-coated (50 ng/well goat anti-cFms antibody in PBS) ELISA plate and incubated overnight at 4° C. Plates were washed five times with PBST (PBS containing 0.05% Tween-20). Primary antibody (biotin-conjugated anti-phosphotyrosine monoclonal antibody, PIERCE) was diluted 1:10,000 in PBST containing 1% BSA, added (100 ul/well) and incubated for 2 h at room temperature. After washing the plates five times with washing buffer, 100 ul/well of HRP-conjugated streptavidin (PIERCE) in PBST containing 1% BSA was added and incubated for 30 min at room temperature. After washing five times with PBST, 100 ul/well of SuperSignal ELISA Femto Substrate (PIERCE) was added and incubated for almost 1 min at room temperature. Chemiluminescence was measured using Wallac 1420 multilabel counter.
The IC50 was determined by using XLfit software (IDBS) with four-parameters, sigmoidal dose-response equation.

T1 sequence (P08581 956-1390): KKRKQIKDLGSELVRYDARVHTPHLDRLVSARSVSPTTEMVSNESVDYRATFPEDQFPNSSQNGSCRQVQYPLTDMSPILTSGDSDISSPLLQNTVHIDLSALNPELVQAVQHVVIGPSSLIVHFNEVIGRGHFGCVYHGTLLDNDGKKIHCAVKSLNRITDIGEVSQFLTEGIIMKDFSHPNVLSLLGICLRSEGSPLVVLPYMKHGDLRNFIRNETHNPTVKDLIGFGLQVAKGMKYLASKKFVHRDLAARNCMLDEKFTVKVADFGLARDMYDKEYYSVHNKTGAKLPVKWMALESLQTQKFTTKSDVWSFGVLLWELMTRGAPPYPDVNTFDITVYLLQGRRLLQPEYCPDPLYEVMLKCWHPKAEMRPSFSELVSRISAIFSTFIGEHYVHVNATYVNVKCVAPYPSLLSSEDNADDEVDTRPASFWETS
T2 sequence (P08581 with tags, fused parts or gaps): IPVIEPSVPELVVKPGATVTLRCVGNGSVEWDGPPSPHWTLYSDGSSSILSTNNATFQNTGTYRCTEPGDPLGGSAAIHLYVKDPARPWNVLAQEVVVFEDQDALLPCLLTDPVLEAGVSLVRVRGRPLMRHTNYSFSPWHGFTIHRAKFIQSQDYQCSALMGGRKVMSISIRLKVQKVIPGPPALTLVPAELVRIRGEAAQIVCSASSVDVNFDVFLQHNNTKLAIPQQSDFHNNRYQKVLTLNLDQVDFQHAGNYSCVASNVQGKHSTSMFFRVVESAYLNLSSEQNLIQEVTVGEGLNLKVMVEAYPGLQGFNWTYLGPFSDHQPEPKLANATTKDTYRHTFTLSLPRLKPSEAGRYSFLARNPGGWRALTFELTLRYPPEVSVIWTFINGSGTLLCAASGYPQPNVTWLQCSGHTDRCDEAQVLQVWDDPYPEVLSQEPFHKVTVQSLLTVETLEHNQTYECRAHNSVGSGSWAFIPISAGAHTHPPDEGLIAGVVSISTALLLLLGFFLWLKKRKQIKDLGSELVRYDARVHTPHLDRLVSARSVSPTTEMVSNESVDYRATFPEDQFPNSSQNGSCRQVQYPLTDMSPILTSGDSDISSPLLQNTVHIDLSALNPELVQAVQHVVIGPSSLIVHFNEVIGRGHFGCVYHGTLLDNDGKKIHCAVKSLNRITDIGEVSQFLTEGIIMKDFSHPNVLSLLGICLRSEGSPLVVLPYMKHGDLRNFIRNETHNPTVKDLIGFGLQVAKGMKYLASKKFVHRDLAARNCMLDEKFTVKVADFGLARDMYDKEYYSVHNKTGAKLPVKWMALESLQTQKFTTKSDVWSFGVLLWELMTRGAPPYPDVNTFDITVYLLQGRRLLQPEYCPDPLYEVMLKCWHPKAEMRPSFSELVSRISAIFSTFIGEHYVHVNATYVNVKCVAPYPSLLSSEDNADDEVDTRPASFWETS

IC50 [1] | IC50 [2] | Structure (SMILES)
< 10 nM | 1000 to 3160 nM | CN(C)Cc1cccc(NC(=O)c2cc3c(Oc4ccc(NC(=O)C5(C(=O)Nc6ccc(F)cc6)CC5)cc4)ccnc3[nH]2)c1 [Example 14, N^1-[4-({2-[({3-[(Dimethylamino)methyl]phenyl}amino)carbonyl]-1H-pyrrolo[2,3-b]pyridin-4-yl}oxy)phenyl]-N^1-(4-fluorophenyl)-1,1-cyclopropane dicarboxamide]
100 to 1000 nM | 3160 to 31600 nM | O=C(Nc1ccccc1)C1(C(=O)Nc2ccc(Nc3ccnc4[nH]ccc34)cc2)CC1 [Example 16, N^1-Phenyl-N^1-[4-(1H-pyrrolo[2,3-b]pyridin-4-ylamino)phenyl]-1,1-cyclopropanedicarboxamide]
